Results published in patent US11505581B2, “Antigens and T cell epitopes from cockroach and methods of making and using same” (La Jolla Institute for Allergy and Immunology, priority 2015, dated 2022).

Tested on: PBMC
Assay: ELISPOT (IFNγ, IL-5, IL-10, IL-17, IL-21) of PBMC expanded 14 days with Bla g extract, then stimulated with peptides or peptide pools
Type: cell-based, human
Design: key to Average Magnitude of Response: spot forming cells (SFC) per 10^6 PBMC; Response Rate per Subject: unit not given here
Conditions: non-redundant epitopes; sensitized donors
Experimental: PBMC Isolation and Cell Cultures: PBMC (peripheral blood mononuclear cells) were isolated from 450 mL (one unit) of blood by density gradient centrifugation as described and cryopreserved. For in vitro expansion of PBMC for peptide screening, cells were cultured in RPMI1640 (Omega Scientific)+5% human AB serum (Gemini Bioscience), GlutaMAX (Gibco), and penicillin/streptomycin (Omega Scientific) at 2×10^6 per mL, stimulated with 10 ug/mL Bla g extract (Greer), and incubated at 37° C. in 5% CO2. Every three days, IL-2 and IL-7 (10 U/mL) were added to the cultures. Cells were harvested for peptide screening at day 14.
ELISPOT Assays: Production of IFNγ, IL-5, IL-17, IL-10, and IL-21 (as representative of TH1, TH2, TH17, TR1, and […], respectively) in response to peptide stimulation was measured by ELISPOT as described previously. […] In brief, 1×10^5 cells per well were incubated with peptide, peptide pool, or Bla g extract (10, 5, and 10 ug/ml, respectively) on anti-lymphokine antibody coated ELISPOT plates (Millipore #MSIPS4510) for 22 hours. Subsequently, secondary anti-lymphokine antibodies were added and incubated for 2 hours, washed, and avidin-peroxidase complex added for 1 hour. Plates were washed and spots developed with 3-amino-9-ethylcarbazole (Sigma #A6926) and Vector Blue (Vector #SK-5300) for IFNγ/IL-5 and IL-10/IL-17 dual plates or TMB (Sigma #T0565) for single IL-21. Criteria for peptide pool positivity were at least 100 spot forming cells (SFC) per 10^6 PBMC, p<0.05, and stimulation index≥2. Criteria for peptide positivity were identical except with a threshold of 20 SFCs.
We synthetized overlapping peptide sets of 15 amino acids in length overlapping by 10 residues and covering the entire sequence of known Bla g Allergens, i.e. Bla g 1-7, 9 and 11, referred from hereafter collectively as BLAGA. A total of 809 BLAGA peptides were arranged in pools, encompassing on average 20 peptides.
To assess T cell reactivity, we utilized a strategy applied to the definition of epitopes from various allergen sources^15,16 utilizing in vitro stimulation with allergen extracts. Here, PBMC from each subject were stimulated in vitro with Bla g extract. After 14 days, pools of overlapping 15-mer peptides from the BLAGA were tested for responses, and positive pools deconvoluted to identify the specific epitopes. As readout, we utilized ELISPOT assays specific for IL-5, IFNγ, IL-10, IL-17 and IL-21, chosen as representative of TH2, TH1, TR1, TH17 and TFH reactivity, respectively.

| Sequence | Average Magnitude of Response | Response Rate per Subject |
| --- | --- | --- |
| KAIEEDLKHFNLKYE | 5.7 | 2.9 |
| KAIFIKCDVTNIPEF | 9.3 | 7.1 |
| KALQNAESEVAALNR | 6.0 | 1.4 |
| KCHLTNIACLLHNKY | 22.6 | 5.7 |
| KDDWENLEIDMIVDT | 8.4 | 2.9 |
| KEFANVVRVVRHTSK | 3.3 | 2.9 |
| KELVEKYGKGKAIFI | 3.4 | 2.9 |
| KFEGNKFTIDYNDKG | 14.2 | 4.3 |
| KFTIDYNDKGKAFSA | 32.0 | 11.4 |
| KIGEYKNMIAEGIID | 6.2 | 1.4 |
| KKLQFTYSESLDLDD | 4.2 | 2.9 |
| KLAASDSKSLLRKYL | 43.8 | 7.1 |
| KLGDKEMIQHYTLDQ | 5.0 | 1.4 |
| KLYKMAVAFMLAYPY | 15.8 | 7.1 |
| KNMTYVNTSLVLAFS | 8.4 | 2.9 |
| KNRTTIRGRTKFEGN (listed as Blattella germanica) | 81.7 | 2.9 |
| KQLKVSQIMEAARKL | 4.2 | 4.3 |
| KTPVLEIDGKQTHQS (listed as Blattella germanica) | 57.0 | 14.3 |
| KTPVLSVNATVVRLQ | 3.2 | 1.4 |
| KVFLKNYLVGNAQFK | 6.4 | 1.4 |
| KVIDLLLSLYLDQNE | 3.6 | 7.1 |
| LDYLNHMAKEDLVAN | 13.0 | 10.0 |

| Sequence | Average Magnitude of Response | Response Rate per Subject |
| --- | --- | --- |
| LGHTVCLSGFMGIDL | 3.2 | 2.9 |
| LIPVDQIIAIATDYL | 9.8 | 1.4 |
| LKNYQLDSELRIKAF | 3.2 | 1.4 |
| LKYFNMGVQKFWAFD | 19.8 | 8.6 |
| LNAIEFINNIHDLLG | 8.8 | 2.9 |
| LNDYILPAPYEIYPW | 3.0 | 2.9 |
| LNIFTNNLGRINTHV (listed as Blattella germanica) | 57.6 | 4.3 |
| LNQEAHYQFDSIHKF | 22.6 | 2.9 |
| LNTYYSYYYFNYPTF | 4.1 | 2.9 |
| LRLSEHLDYVKNLTV | 3.1 | 1.4 |
| LTVFDSTSCNVVVAS | 4.0 | 2.9 |
| LVFLRNAKIELKPNQ | 4.0 | 2.9 |
| LVYPTSLGFPLKLVL | 4.4 | 2.9 |
| LWEINMIKAIISQLQ | 3.5 | 2.9 |
| MAPSYKLTYCPVKAL | 8.8 | 4.3 |
| MGVQKFWAFDNTTFS | 7.3 | 7.1 |
| MIVDTISDFRAAIAN (listed as Blattella germanica) | 91.4 | 7.1 |
| MNITGSINLMFSQMY | 7.6 | 5.7 |
| NAIEFLNNIHDLLGI | 3.0 | 1.4 |
| NASAVIQEFLKTYKK | 5.0 | 2.9 |
| NDIEKRVPFSHDDRL (listed as Blattella germanica) | 72.8 | 15.7 |
| NGGYLAAGKLTWADF (listed as Blattella germanica) | 58.5 | 5.7 |

| Sequence | Average Magnitude of Response | Response Rate per Subject |
| --- | --- | --- |
| NIACLLHNKYDSTKS (listed as Blattella germanica) | 61.0 | 2.9 |
| NLEIDMIVDTISDFR | 19.1 | 2.9 |
| NTTFSNASAVIQEFL | 4.2 | 5.7 |
| NVIYSQNSFLPRATT | 3.8 | 1.4 |
| NYAIVEGCPAAANGH (listed as Blattella germanica) | 64.6 | 1.4 |
| PAIKAWVAKRPPTDL | 18.7 | 10.0 |
| PAYFKMNSPSLWKYN (listed as Blattella germanica) | 56.1 | 4.3 |
| PKSMLLNIFTNNLGR (listed as Blattella germanica) | 52.5 | 7.1 |
| PLKKETIPYYTKKFD | 14.2 | 5.7 |
| PNLKPSMPFGKTPVL | 4.2 | 2.9 |
| PVDQIIAIATDYLAN | 7.5 | 2.9 |
| QDVHKKLREWLSKNV | 8.5 | 1.4 |
| QIIAIATDYLANDAE | 7.5 | 2.9 |
| QKGYMVSSMTDLWEA | 13.9 | 8.6 |
| QKKWDPLKKETIPYY | 7.7 | 4.3 |
| QPNLKALREKVLGLP | 6.5 | 5.7 |
| QQFISSEMVEPKEAS | 6.8 | 2.9 |
| QTHQSVAISRYLGKQ | 4.3 | 4.3 |
| QTLFLLLLLLAAVSA | 3.2 | 1.4 |
| QVYRRLVTAVNDIEK | 44.1 | 5.7 |
